Source: patent US20180172683A1, “METHODS FOR ANALYZING THE INTERACTION BETWEEN A TARGET PROTEIN AND A LIGAND” (UNIVERSITY OF SOUTHERN CALIFORNIA, priority 2015, published 2018)
Peptide text beside a SMILES is read from it. * marks the point of attachment. Biotin = O=C1N[C@H]2[C@H](CS[C@H]2CCCCC(=O)*)N1

Molecular target: T1, Bcl-xL (Homo sapiens, UniProt Q07817)
T1 construct: The gene for the first 209 amino acids of Bcl-xL; made in house; host or cells: E. coli BL21(DE3), pET24a vector
Experiment: High-throughput sequencing kinetic (HTSK) on- and off-rates of mRNA-peptide fusions
Type: binding
Conditions: mRNA-peptide fusions, next-generation sequencing
Procedure: Preparing the pools of fusion ligands. The DNAs for the final enriched pools from the extension and the doped selection against Bcl-xL were generated. The DNA pools were PCR amplified using Taq polymerase and in vitro transcribed into mRNA using T7 RNA polymerase (Liu et al., Methods Enzymol. 318, 268-293 (2000)). After transcription, the mRNA was urea-PAGE purified and resuspended in deionized water to a final concentration of 30 μM. The mRNA was then ligated to fluorescein-F30P (phosphate-dA21-[dT-fluor]-[C9]3-dAdCdCP; where [dT-fluor] is fluorescein dT (Glen Research), [C9] is spacer 9 (Glen Research), and P is puromycin (Glen Research); synthesized at the Keck Oligo Facility at Yale) using T4 DNA ligase (Takahashi et al., Methods Mol. Biol. 535, 293-314 (2009)). The ligation was performed using a splint complementary to the 3′ end of the RNA and the 5′ end of the DNA-linker. The ligated mRNA was urea-PAGE purified and resuspended in deionized water to final concentration of 30 μM. The samples were in vitro translated in the translation solution-150 mM KOAc, 750 μM MgCl2, 2 μM mRNA, in 1× translation mix (20 mM Hepes-KOH pH 7.6, 100 mM creatine phosphate, 2 mM DTT, and 312.5 μM of each amino acid) and 60% (v/v) rabbit reticulocyte lysate. To prepare radiolabeled peptides or proteins, non-labeled methionine was substituted with ^35S-labeled methionine (Perkin Elmer; 20 μCi for each 25 μL of translation). The translation reactions were incubated at 30° C. for one hour. To form mRNA-protein fusions, KCl and MgCl2 were added to the reaction to final concentrations of 250 mM and 30 mM respectively after translation, and the samples were frozen at −20° C.
To purify the fusion molecules, 100 μL of dT cellulose (25% (v/v) slurry, GE Healthcare) in isolation buffer (100 mM Tris-HCl pH 8.0, 1 M NaCl, 0.2% (v/v) Triton X-100) was added and incubated for 1 hour. The beads were washed five times with 700 μL of isolation buffer, and the fusions were eluted with 3×80 μL of 65° C. water and desalted through Centrisep columns (Princeton Separations). The desalted fusions were adjusted to 1×RT buffer (50 mM Tris-HCl pH 8.3, 75 mM KCl, 3 mM MgCl2, […], […],) and the sample was heated to 65° C. for 5 minutes and cooled on ice to anneal the 3′ primer. After cooling, […] of Superscript II enzyme was added and the reaction incubated at 42° C. for one hour. […]
On- and off-rate experiments. […] The radiolabeled samples were washed 3×, and the beads were counted via a scintillation counter.
To obtain the HTSK off-rates, after the kinetic on-rate experiment, the remaining beads were washed 5× with selection buffer. […] The radiolabeled samples were washed and counted via a scintillation counter. […]

T1 sequence (Q07817 1-209 limits assumed): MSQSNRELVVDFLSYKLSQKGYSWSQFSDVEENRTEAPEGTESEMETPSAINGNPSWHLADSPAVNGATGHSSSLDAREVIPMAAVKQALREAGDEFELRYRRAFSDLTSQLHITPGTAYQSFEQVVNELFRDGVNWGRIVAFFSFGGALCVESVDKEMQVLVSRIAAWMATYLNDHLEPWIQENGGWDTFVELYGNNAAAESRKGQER

Row | SMILES | koff [s⁻¹]
1 | CC[C@H](C)[C@H](NC(=O)[C@H](C)NC(=O)[C@@H](NC(=O)[C@@H](N)CCSC)[C@@H](C)CC)C(=O)N[C@@H](CO)C(=O)N[C@H](C(=O)N[C@H](C(=O)N[C@@H](Cc1ccc(O)cc1)C(=O)N[C@@H](CC(N)=O)C(=O)N[C@@H](Cc1ccc(O)cc1)C(=O)N[C@@H](CCCCN)C(=O)N[C@@H](CCCCN)C(=O)N[C@@H](C)C(=O)N[C@@H](C)C(=O)N[C@@H](CC(=O)O)C(=O)N[C@@H](Cc1c[nH]cn1)C(=O)N[C@@H](Cc1ccc(O)cc1)C(=O)N[C@@H](C)C(=O)N[C@@H](CCSC)C(=O)N[C@H](C(=O)N[C@@H](CCCCN)C(=O)NCC(=O)N[C@@H](CO)C(=O)N[C@@H](CCCCNC(=O)CCCC[C@@H]1SC[C@@H]2NC(=O)N[C@@H]21)C(N)=O)[C@@H](C)O)[C@@H](C)CC)[C@@H](C)O [D1] (H-MIAISTIYNYKKAADHYAMTKGSK(Biotin)-NH2) | 1e-06
2 | CC[C@H](C)[C@H](NC(=O)[C@@H](NC(=O)[C@@H](NC(=O)[C@@H](NC(=O)[C@H](CCC(=O)O)NC(=O)[C@@H](NC(=O)[C@@H](N)CCSC)[C@@H](C)CC)[C@@H](C)O)[C@@H](C)CC)[C@@H](C)O)C(=O)N[C@@H](Cc1ccc(O)cc1)C(=O)N[C@@H](CC(N)=O)C(=O)N[C@@H](Cc1ccc(O)cc1)C(=O)N[C@@H](CCCCN)C(=O)N[C@@H](CCCCN)C(=O)N[C@@H](C)C(=O)N[C@@H](C)C(=O)N[C@@H](CC(=O)O)C(=O)N[C@@H](Cc1c[nH]cn1)C(=O)N[C@@H](Cc1ccccc1)C(=O)N[C@@H](CO)C(=O)N[C@@H](CCSC)C(=O)N[C@@H](CO)C(=O)N[C@@H](CCSC)C(=O)NCC(=O)N[C@@H](CO)C(=O)N[C@@H](CCCCNC(=O)CCCC[C@@H]1SC[C@@H]2NC(=O)N[C@@H]21)C(N)=O [E1] (H-MIETITIYNYKKAADHFSMSMGSK(Biotin)-NH2) | 2.5e-06
